Results published in patent publication US20240010684A1, “MASP INHIBITORY COMPOUNDS AND USES THEREOF” (BAYER AKTIENGESELLSCHAFT, priority 2020, published 2024).
*1 amine or outer side, *2 acyl side, *3 side chain or, on linkers, in order; H or OH if unused. Where a SMILES comes first, the peptide text is derived from it. Bridges are numbered along the chain shown (N, C = ends). [ ]: non-standard residue; d: D form. Oic = O=C(O)[C@@H]1C[C@@H]2CCCC[C@@H]2N1; X5 = NCCC[C@H](N[*:1])C(=O)NC(=O)[*:2]; Arg(Me) = CNC(=N)NCCC[C@H](N)C(=O)O; tBuAla = CC(C)(C)C[C@H](N)C(=O)O; Pen = CC(C)(S)[C@H](N)C(=O)O; NMeC = CN[C@@H](CS)C(=O)O; Dap = NC[C@H](N)C(=O)O; Ahx = NCCCCCC(=O)O

Tests used:
human MASP1 = human MASP1 (Homo sapiens (Human), UniProt P48740); assay: Biochemical human MASP1 assay (FRET substrate); settings: Average IC50; recombinant human MASP1; read-out: human MASP1 IC50
Chain of human MASP1 (P48740 other isoform, or with tags, fused parts or gaps): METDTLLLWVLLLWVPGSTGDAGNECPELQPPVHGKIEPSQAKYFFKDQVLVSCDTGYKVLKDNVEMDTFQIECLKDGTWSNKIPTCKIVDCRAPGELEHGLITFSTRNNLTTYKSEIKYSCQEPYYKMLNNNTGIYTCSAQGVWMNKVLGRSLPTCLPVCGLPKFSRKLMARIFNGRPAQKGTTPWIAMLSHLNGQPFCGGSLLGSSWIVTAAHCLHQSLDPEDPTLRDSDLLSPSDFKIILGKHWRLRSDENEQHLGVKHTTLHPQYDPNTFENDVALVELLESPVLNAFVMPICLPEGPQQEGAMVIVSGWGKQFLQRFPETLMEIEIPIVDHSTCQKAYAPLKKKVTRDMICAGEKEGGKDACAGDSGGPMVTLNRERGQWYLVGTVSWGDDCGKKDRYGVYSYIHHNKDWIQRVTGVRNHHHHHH
Procedure, shortened: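 Recombinant human MASP1 (aa 297-699, C-terminal His tag, HEK293-expressed, Ni-NTA purified) diluted to 20 nM in 50 mM HEPES pH 8,0, 100 mM NaCl, 0,01% CHAPS, 0.5 mM glutathione, preincubated with compound in DMSO; reaction started with 20 μM ABZ/Dnp FRET substrate solution. Fluorescence (ex 320/em 420 nm) after 60-120 min at 32 C; IC50 from % inhibition.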

human MASP2 = human MASP2 (Homo sapiens (Human), UniProt O00187); assay: Biochemical human MASP2 assay (FRET substrate); settings: Average IC50; recombinant human MASP2; read-out: human MASP2 IC50
Chain of human MASP2 (O00187 other isoform, or with tags, fused parts or gaps): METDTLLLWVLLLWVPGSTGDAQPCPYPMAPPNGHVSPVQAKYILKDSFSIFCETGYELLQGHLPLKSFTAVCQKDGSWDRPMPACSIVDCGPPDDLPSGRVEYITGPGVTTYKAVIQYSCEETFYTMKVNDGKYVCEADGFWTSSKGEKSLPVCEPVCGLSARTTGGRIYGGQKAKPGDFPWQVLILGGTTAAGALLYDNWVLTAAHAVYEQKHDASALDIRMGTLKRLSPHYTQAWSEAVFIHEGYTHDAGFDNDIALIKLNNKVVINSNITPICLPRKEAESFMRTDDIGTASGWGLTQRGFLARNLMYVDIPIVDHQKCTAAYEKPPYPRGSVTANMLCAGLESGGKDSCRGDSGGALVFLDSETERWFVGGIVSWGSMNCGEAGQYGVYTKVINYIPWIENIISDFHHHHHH
Procedure, shortened: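 Mature recombinant human MASP2, expressed in HEK293 and purified by Ni-NTA affinity, was reacted with a DABCYL FRET peptide substrate (added as a 60 μM solution) for 60-120 min at 32 C. Fluorescence increase was read at ex 340/em 490 nm; IC50 was derived from % inhibition versus compound concentration.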

[1] = tested on: Human C3-DEPOSITION SERUM; assay: C3 deposition assay, human serum on mannan-coated plates; assay type: biochemical; settings: Average IC50, read-out: Human C3-DEPOSITION SERUM IC50
Method: 3. C3 Deposition Assay (Human, Rat, Mouse, Dog, Pig))
The C3 deposition assay was conducted essentially as described (reference). Multiwell plates (Greiner-Nunc 384 Maxi Sorp #464718) were coated over night with Mannan from Saccharomyces cerevisiae (Sigma M7504, 10 μg/mL in 0.05 M carbonate-bicarbonate buffer, pH 9.6) at 4° C. Wells were washed three times with TBS and subsequently incubated for 2 hours with 50 μL of 1% bovine serum albumin (BSA) in Tris-buffered saline (TBS) at 37° C. in order to block non-specific binding. After this step and each of the following incubation steps wells were washed three times with C3 wash buffer (TBS; 0.05% Tween 20; 5 mM CaCl2). […] When appropriately developed the color reaction was stopped by addition of 25 μL of stop solution (Sigma S5814) and quantified on a photometer by measuring absorption at a wavelength of 450 nm. Antibodies were diluted in C3 wash buffer supplemented with 0.5% BSA.

Row | Structure (SMILES) | IC50 (human MASP1) | IC50 (human MASP2) | IC50 [1]
1 | CC[C@H](C)[C@@H]1NC(=O)CNC(=O)CNC(=O)[C@H](C)NC(=O)[C@H](CC(=O)O)NC(=O)[C@@H]2CCCN2C(=O)[C@H]([C@@H](C)CC)NC(=O)[C@H]2NC(=O)[C@H]([C@@H](C)CC)NC(=O)[C@@H]3CCCN3C(=O)[C@@H]3CCCN3C(=O)[C@H](CC(C)(C)C)NC(=O)[C@H](CO)NC(=O)[C@H](CCCNC(=N)N)NC(=O)[C@H](CO)NC(=O)[C@H](CSSC2(C)C)NC1=O [Example 29] (cyclo(AGGICSRS[tBuAla]PPI[Pen]IPD); disulfide 5-13) | 8.6 nM | 68 nM | 84.6 nM
2 | CC[C@H](C)[C@@H]1NC(=O)[C@H](CN)NC(=O)[C@@H]2CCCN2C(=O)[C@H]([C@@H](C)CC)NC(=O)[C@H]2NC(=O)[C@H]([C@@H](C)CC)NC(=O)[C@@H]3C[C@@H]4CCCC[C@@H]4N3C(=O)[C@H]3CCCN3C(=O)[C@H](CC(C)C)NC(=O)[C@H](CO)NC(=O)[C@H](CCCNC(=N)N)NC(=O)[C@H](CO)NC(=O)[C@H](CSSC2(C)C)NC1=O [Example 87] (cyclo(CSRSL[dP][Oic]I[Pen]IP[Dap]I); disulfide 1-9) | 46 nM | 700 nM | 78.6 nM
3 | CC[C@H](C)[C@@H]1NC(=O)NC(=O)[C@H](CCCN)NC(=O)[C@@H]2CCCN2C(=O)[C@H]([C@@H](C)CC)NC(=O)[C@H]2NC(=O)[C@H]([C@@H](C)CC)NC(=O)[C@@H]3CCCN3C(=O)[C@@H]3CCCN3C(=O)[C@H](CC(C)(C)C)NC(=O)[C@H](CO)NC(=O)[C@H](CCCNC(=N)NC)NC(=O)[C@H](CO)NC(=O)[C@H](CSSC2(C)C)NC1=O [Example 96] (cyclo([Arg(Me)]S[tBuAla]PPI[Pen]IP[X5]ICS); disulfide 7-12) | 23 nM | 400 nM | 103 nM
4 | CC[C@H](C)[C@@H]1NC(=O)[C@H](CN)NC(=O)[C@@H]2CCCN2C(=O)[C@H]([C@@H](C)CC)NC(=O)[C@H]2NC(=O)[C@H]([C@@H](C)CC)NC(=O)[C@@H]3CCCN3C(=O)[C@@H]3CCCN3C(=O)[C@H](CC(C)(C)C)NC(=O)[C@H](CO)NC(=O)[C@H](CCCNC(=N)N)NC(=O)[C@H](CO)NC(=O)[C@H](CSSC2(C)C)NC1=O [Example 55, N-{3-[(6S,9S,12S,15S,18R,21S,24S,26aS,32S,35R,38S,40aS,45aS)-24-(aminomethyl)-21,32,38-tri[(2S)-butan-2-yl]-6-(2,2-dimethylpropyl)-9,15-bis(hydroxymethyl)-46,46-dimethyl-5,8,11,14,17,20,23,26,31,34,37,40,45-tridecaoxotetratetracontahydro-1H-18,35-(methanodithiomethano)tripyrrolo[1,2-a:1′,2′-d:1″,2″-p][1,4,7,10,13,16,19,22,25,28,31,34,37]tridecaazacyclononatriacontin-12-yl]propyl}guanidine] (cyclo(CSRS[tBuAla]PPI[Pen]IP[Dap]I); disulfide 1-9) | 46 nM | 900 nM | 382 nM
5 | CC[C@H](C)[C@@H]1NC(=O)CNC(=O)[C@H](CN)NC(=O)[C@H](CN)NC(=O)[C@H](CC(=O)O)NC(=O)[C@@H]2CCCN2C(=O)[C@H]([C@@H](C)CC)NC(=O)[C@@H]2CSSC[C@H](NC1=O)C(=O)N[C@@H](CO)C(=O)N[C@@H](CCCNC(=N)N)C(=O)N[C@@H](CO)C(=O)N[C@@H](CC(C)C)C(=O)N1CCC[C@H]1C(=O)N1CCC[C@H]1C(=O)N[C@@H]([C@@H](C)CC)C(=O)N2 [Example 23] (cyclo(CIPD[Dap][Dap]GICSRSLPPI); disulfide 1-9) | 180 nM | 20 nM | 121 nM
6 | CC[C@H](C)[C@@H]1NC(=O)[C@H](CN)NC(=O)[C@@H](N)CNC(=O)[C@@H]2CCCN2C(=O)[C@H]([C@@H](C)CC)NC(=O)[C@H]2NC(=O)[C@H]([C@@H](C)CC)NC(=O)[C@@H]3C[C@@H]4CCCC[C@@H]4N3C(=O)[C@@H]3CCCN3C(=O)[C@H](CC(C)C)NC(=O)[C@H](CO)NC(=O)[C@H](CCCNC(=N)N)NC(=O)[C@H](CO)NC(=O)[C@H](CSSC2(C)C)NC1=O [Example 86] (H-[Dap][Dap]ICSRSLP[Oic]I[Pen]IP; lactam 1-C; disulfide 4-12) | 27 nM | 1000 nM | 46.3 nM
7 | CC[C@H](C)[C@@H]1NC(=O)[C@H](CN)NC(=O)[C@H](CN)NC(=O)[C@@H]2CCCN2C(=O)[C@H]([C@@H](C)CC)NC(=O)[C@H]2NC(=O)[C@H]([C@@H](C)CC)NC(=O)[C@@H]3CCCN3C(=O)[C@@H]3CCCN3C(=O)[C@H](CC(C)(C)C)NC(=O)[C@H](CO)NC(=O)[C@H](CCCNC(=N)N)NC(=O)[C@H](CO)NC(=O)[C@H](CSSC2(C)C)NC1=O [Example 97] | 5 nM | 760 nM | 56.4 nM
8 | CC[C@H](C)[C@@H]1NC(=O)[C@H]2NC(=O)[C@H]([C@@H](C)CC)NC(=O)[C@@H]3CCCN3C(=O)[C@@H]3CCCN3C(=O)[C@H](CC(C)(C)C)NC(=O)[C@H](CO)NC(=O)[C@H](CCCNC(=N)N)NC(=O)[C@H](CO)NC(=O)[C@H](CSSC2(C)C)NC(=O)[C@H]([C@@H](C)CC)NC(=O)[C@@H](N)CCCCNC1=O [Example 67, N-{3-[(5aS,11S,14S,17S,20S,23R,26S,29S,36S,39R,42S,44aS)-29-amino-26,36,42-tri[(2S)-butan-2-yl]-11-(2,2-dimethylpropyl)-14,20-bis(hydroxymethyl)-45,45-dimethyl-5,10,13,16,19,22,25,28,35,38,41,44-dodecaoxodotetracontahydro-1H,5H-23,39-(methanodithiomethano)dipyrrolo[2,1-1:2′,1′-o][1,4,7,10,13,16,19,22,25,28,31,34]dodecaazacyclotetracontin-17-yl]propyl}guanidine] (H-KICSRS[tBuAla]PPI[Pen]I; lactam 1-C; disulfide 3-11) | 3.25 nM | 150 nM | 19.1 nM
9 | CC[C@H](C)[C@@H]1NC(=O)[C@H](C)NC(=O)CCCCCNC(=O)[C@H](CC(=O)O)NC(=O)[C@@H]2CCCN2C(=O)[C@H]([C@@H](C)CC)NC(=O)[C@@H]2CSSC[C@H](NC1=O)C(=O)N[C@@H](CO)C(=O)N[C@@H](CCCNC(=N)N)C(=O)N[C@@H](CO)C(=O)N[C@@H](CC(C)(C)C)C(=O)N1CCC[C@H]1C(=O)N1CCC[C@H]1C(=O)N[C@@H]([C@@H](C)CC)C(=O)N2C [Example 32] (cyclo(AICSRS[tBuAla]PPI[NMeC]IPD[Ahx]); disulfide 3-11) | 22 nM | 63.5 nM | 121 nM
10 | CC[C@H](C)[C@@H]1NC(=O)[C@@H]2CCCN2C(=O)[C@H]([C@@H](C)CC)NC(=O)[C@H]2NC(=O)[C@H]([C@@H](C)CC)NC(=O)[C@@H]3CCCN3C(=O)[C@@H]3CCCN3C(=O)[C@H](CC(C)(C)C)NC(=O)[C@H](CO)NC(=O)[C@H](CCCNC(=N)N)NC(=O)[C@H](CO)NC(=O)[C@H](CSSC2(C)C)NC1=O [Example 88, N-{3-[(6S,9S,12S,15S,18R,21S,23aS,29S,32R,35S,37aS,42aS)-21,29,35-tri[(2S)-butan-2-yl]-6-(2,2-dimethylpropyl)-9,15-bis(hydroxymethyl)-43,43-dimethyl-5,8,11,14,17,20,23,28,31,34,37,42-dodecaoxotetracontahydro-1H,5H-18,32-(methanodithiomethano)tripyrrolo[1,2-a:1′,2′-d:1″,2″-p][1,4,7,10,13,16,19,22,25,28,31,34]-dodecaazacyclohexatriacontin-12-yl]propyl}guanidine hydrogen chloride] (cyclo(CSRS[tBuAla]PPI[Pen]IPI); disulfide 1-9) | 1000 nM | 1000 nM | 50000 nM
11 | CC[C@H](C)[C@@H]1NC(=O)[C@H](CN)NC(=O)[C@H](CN)NC(=O)[C@H]([C@@H](C)CC)NC(=O)[C@H]2NC(=O)[C@H]([C@@H](C)CC)NC(=O)[C@@H]3CCCN3C(=O)[C@@H]3CCCN3C(=O)[C@H](CC(C)(C)C)NC(=O)[C@H](CO)NC(=O)[C@H](CCCNC(=N)N)NC(=O)[C@H](CO)NC(=O)[C@H](CSSC2(C)C)NC1=O [Example 57, N-{3-[(5aS,11S,14S,17S,20S,23R,26S,29S,32S,35S,38R,41S,43aS)-29,32-bis(aminomethyl)-26,35,41-tri[(2S)-butan-2-yl]-11-(2,2-dimethylpropyl)-14,20-bis(hydroxymethyl)-44,44-dimethyl-5,10,13,16,19,22,25,28,31,34,37,40,43-tridecaoxodotetracontahydro-5H-23,38-(methanodithiomethano)dipyrrolo[1,2-a:1′,2′-d]-[1,4,7,10,13,16,19,22,25,28,31,34,37]tridecaazacyclononatriacontin-17-yl]propyl}guanidine] (cyclo(CSRS[tBuAla]PPI[Pen]I[Dap][Dap]I); disulfide 1-9) | 46 nM | 340 nM | 236 nM
